Measured values: US7700584B2 (Hangzhou Minsheng Pharmaceuticals Co., Ltd., priority 2004, dated 2010)
Counter-ions that a name gives are not always drawn. Like-named read-outs stand apart in the source and are kept apart here.

What was measured:
[1] = tested on: MCF-7 human mammary adenocarcinoma; assay: In vitro inhibition rate to tumor cells (MTT), MCF-7; assay type: cell-based; details: for inhibition rate, Results (%) MCF-7: 50 μg/ml
[2] = molecular target: T1, HIV-1 reverse transcriptase (Human immunodeficiency virus type 1 group M subtype B, UniProt P04585); assay: Screening for the in vitro activity against the HIV-1 reverse transcriptase; assay type: biochemical
T1 construct: purchased
Outline: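 Colorimetric RT activity assay: HIV-1 RT incorporates Biotin-dUTP into an immobilized template, detected with streptavidin-HRP at OD450. Samples were dissolved in DMSO, then serially diluted 5× in water to five concentrations, and incubated with enzyme and Biotin-dUTP in reaction buffer.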

[3] = tested on: Hela human cervical carcinoma; assay: In vitro anti-tumor IC50 (MTT), Hela; assay type: cell-based; details: Table 4; for IC50: Homo sapiens, HeLa, read-out: IC50 (ug/ml) against tumor cell lines, Hela
[4] = molecular target: T2, HIV-1 proteinase (HIV-1 PR) (Human immunodeficiency virus type 1 group M subtype B, UniProt P04585); assay: Screening for in vitro activity against HIV-1 proteinase; assay type: biochemical
T2 construct: HIV-1 proteinase digests the fluorescent-labeled substrate; purchased
Outline: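 Recombinant HIV-1 PR cleaves a fluorescent-labeled substrate in reaction buffer. Samples were dissolved in DMSO and serially diluted 5-fold in water (five dilutions), then added before the enzyme. Fluorescence of the product was read after incubation; indinavir was the positive control.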

[5] = tested on: HL-60 human promyelocytic leukemia; assay: In vitro inhibition rate to tumor cells (MTT), HL-60; assay type: cell-based; details: for inhibition at 50 µg/mL: Homo sapiens, HL-60, 50 μg/ml, read-out: inhibition rate, Results (%) HL-60; for inhibition rate, Results (%) HL-60: 50 μg/ml
[6] = tested on: MCF-7 human mammary adenocarcinoma; assay: In vitro anti-tumor IC50 (MTT), MCF-7; assay type: cell-based; details: Table 4; for IC50: Homo sapiens, MCF7, read-out: IC50 (ug/ml) against tumor cell lines, MCF
Experimental: (§1) (1) Single cell suspension was seeded into 96-well plates (the cells was diluted in the PRMI-1640 minimum medium to 3×10^4 cells/ml, […] diluted cells/well). […] The experiments were performed in quadruplicate.
(§2) (2) The medium was removed. Solutions of the anti-tumor agents (50 compounds) were prepared in a freshly prepared medium at serial concentrations. […] of the solution was added into each well. Incubation was continued for 48 hours.
(§3) (3) 20 ug of 2 mg/ml MTT was added into each well, and incubated for 4 hours.
(§4) (4) The medium was removed from the well. The microplates were swiftly turned down to throw-off the medium. […] of DMSO was added into each well, and vortexed at room temperature for 10 minutes.
(§5) (5) OD value (λ=570 nm) was measured with an Enzyme-Linked Detector.
(§6) (6) The graph of cell vitality was plotted, and IC50 was calculated.

[7] = tested on: U-937 human histocytic lymphoma; assay: In vitro inhibition rate to tumor cells (MTT), U-937; assay type: cell-based; details: for inhibition at 50 µg/mL: Homo sapiens, U-937, 50 μg/ml, read-out: inhibition rate, Results (%) U-937; for inhibition rate, Results (%) U-937: 50 μg/ml
[8] = tested on: U-937 human histocytic lymphoma; assay: In vitro anti-tumor IC50 (MTT), U-937; assay type: cell-based; details: Table 4; for IC50: Homo sapiens, U-937, read-out: IC50 (ug/ml) against tumor cell lines, U-937
[9] = tested on: SMMC-7721 human hepatic carcinoma; assay: In vitro inhibition rate to tumor cells (MTT), SMMC-7721; assay type: cell-based; details: for inhibition rate, Results (%) SMMC-7721: 50 μg/ml
[10] = tested on: HL-60 human promyelocytic leukemia; assay: In vitro anti-tumor IC50 (MTT), HL-60; assay type: cell-based; details: Table 4; for IC50: Homo sapiens, HL-60, read-out: IC50 (ug/ml) against tumor cell lines, HL-60
Experimental: as §1, §2, §3, §4, §5, §6

293 cells = assay: Cell status of 293 cells treated with sample alone (herpes virus screening); details: for Cytopathy and cell status, Sample: 24 hrs
[11] = tested on: LLC mouse Lewis lung carcinoma; assay: In vitro inhibition rate to tumor cells (MTT), LLC; assay type: cell-based; details: 50 μg/ml; for inhibition at 50 µg/mL: Mus musculus, Lewis lung carcinoma
[12] = tested on: A-549 human lung adenocarcinoma; assay: In vitro inhibition rate to tumor cells (MTT), A-549; assay type: cell-based; details: for inhibition rate, Results (%) A-549: 50 μg/ml; for inhibition at 50 µg/mL: Homo sapiens, A549, 50 μg/ml, read-out: inhibition rate, Results (%) A-549
[13] = tested on: Bel-7402 human hepatic carcinoma; assay: In vitro inhibition rate to tumor cells (MTT), Bel-7402; assay type: cell-based; details: for inhibition rate, Results (%) Bel-7402: 50 μg/ml; for inhibition at 50 µg/mL: Homo sapiens, Bel-7402, 50 μg/ml, read-out: inhibition rate, Results (%) Bel-7402
[14] = IC50, initial concentration 200 μg/ml
[15] = IC50, five 5× serial dilutions from 50 μg/ml
[16] = Table 2 (repeated screening), hydrochloride

C=C1CC2(OS(=O)(=O)O)OC3(CC2C(C)C)C(C)CCC13 (centres unmarked) [Compound 20, Curcumol sulfonate]
inhibition rate, Results (%) MCF-7 ([1]; Table 1): 18.9% | inhibition rate, Results (%) MCF-7 ([1]; Table 2 (repeated screening)): 16.32% | inhibition rate, Results (%) MCF-7 ([1]; Table 3 (repeated screening)): 14.23% | IC50 [2, 14]: > 632 µM | IC50 [3]: 0.89 µg/mL | inhibition at 0.08 µg/mL ([4]; 0.08 μg/ml, read-out: Inhibition rate): 8.76% | inhibition at 0.4 µg/mL ([4]; 0.40 μg/ml, read-out: Inhibition rate): 7.44% | inhibition at 2 µg/mL ([4]; 2.0 μg/ml, read-out: Inhibition rate): 10.6% | inhibition at 10 µg/mL ([4]; 10 μg/ml, read-out: Inhibition rate): 9.46% | Inhibition rate ([4]; 50 μg/ml): 12.68 | IC50 [4, 15]: > 158 µM | inhibition at 50 µg/mL ([5]; Table 1): 91.3% | inhibition at 50 µg/mL ([5]; Table 2 (repeated screening)): 92.4% | inhibition at 50 µg/mL ([5]; Table 3 (repeated screening)): 91.7% | IC50 [6]: 4.98 µg/mL | inhibition at 50 µg/mL ([7]; Table 1): 89.2% | inhibition at 50 µg/mL ([7]; Table 2 (repeated screening)): 90.3% | inhibition at 50 µg/mL ([7]; Table 3 (repeated screening)): 90% | IC50 [8]: 0.95 µg/mL | inhibition rate, Results (%) SMMC-7721 ([9]; Table 1): 18.08% | inhibition rate, Results (%) SMMC-7721 ([9]; Table 2 (repeated screening)): 1.23% | inhibition rate, Results (%) SMMC-7721 ([9]; Table 3 (repeated screening)): 6.56% | IC50 [10]: 0.45 µg/mL | Cytopathy and cell status, Sample (293 cells; 200 μg/ml): Good | inhibition rate, Results (%) LLC ([11]; Table 2 (repeated screening)): 9.37% | inhibition rate, Results (%) LLC ([11]; Table 3 (repeated screening)): 15.32% | inhibition at 50 µg/mL ([11]; Table 1): 8.97% | inhibition rate, Results (%) A-549 ([12]; Table 1): 12.50% | inhibition rate, Results (%) A-549 ([12]; Table 3 (repeated screening)): 14.32% | inhibition at 50 µg/mL ([12]; Table 2 (repeated screening)): 13% | inhibition rate, Results (%) Bel-7402 ([13]; Table 2 (repeated screening)): 5.36% | inhibition rate, Results (%) Bel-7402 ([13]; Table 3 (repeated screening)): 1.23% | inhibition at 50 µg/mL ([13]; Table 1): 7.89%

CC(C)C1CC23OC1(O)C/C(=C\Nc1ccc(O)cc1)C2CCC3C (centres unmarked) [Compound 6, Curcumol p-hydroxy aniline hydrochloride]
inhibition rate, Results (%) MCF-7 ([1]; Table 1, hydrochloride): 91.89% | inhibition rate, Results (%) MCF-7 [1, 16]: 91.89% | inhibition at 50 µg/mL ([1]; Homo sapiens, MCF7, 50 μg/ml, Table 3 (repeated screening), read-out: inhibition rate, Results (%) MCF-7): 94.1% | IC50 ([2]; initial concentration 200 μg/ml): > 582 µM | IC50 (ug/ml) against tumor cell lines, Hela ([3]; hydrochloride): 0.35 µg/mL | Inhibition rate ([4]; 0.08 μg/ml, hydrochloride): 0.89 | Inhibition rate ([4]; 0.40 μg/ml, hydrochloride): 1.7 | Inhibition rate ([4]; 2.0 μg/ml, hydrochloride): 2.99 | Inhibition rate ([4]; 10 μg/ml, hydrochloride): 13.15 | Inhibition rate ([4]; 50 μg/ml, hydrochloride): 7.07 | IC50 ([4]; five 5× serial dilutions from 50 μg/ml): > 146 µM | inhibition rate, Results (%) HL-60 ([5]; Table 1, hydrochloride): 93.21% | inhibition rate, Results (%) HL-60 [5, 16]: 93.21% | inhibition at 50 µg/mL ([5]; Table 3 (repeated screening)): 95.5% | IC50 (ug/ml) against tumor cell lines, MCF ([6]; hydrochloride): 1.10 µg/mL | inhibition rate, Results (%) U-937 ([7]; Table 1, hydrochloride): 90.92% | inhibition rate, Results (%) U-937 [7, 16]: 94.12% | inhibition at 50 µg/mL ([7]; Table 3 (repeated screening)): 94.1% | IC50 (ug/ml) against tumor cell lines, U-937 ([8]; hydrochloride): 0.56 µg/mL | inhibition rate, Results (%) SMMC-7721 ([9]; Table 1, hydrochloride): 86.12% | inhibition rate, Results (%) SMMC-7721 [9, 16]: 86.12% | inhibition at 50 µg/mL ([9]; Homo sapiens, SMMC-7721, 50 μg/ml, Table 3 (repeated screening), read-out: inhibition rate, Results (%) SMMC-7721): 87.1% | IC50 (ug/ml) against tumor cell lines, HL-60 ([10]; hydrochloride): 0.51 µg/mL | Cytopathy and cell status, Sample (293 cells; 200 μg/ml): Good | inhibition rate, Results (%) LLC ([11]; Table 1, hydrochloride): 88.23% | inhibition rate, Results (%) LLC [11, 16]: 87.02% | inhibition at 50 µg/mL ([11]; Table 3 (repeated screening)): 85% | inhibition rate, Results (%) A-549 ([12]; Table 1, hydrochloride): 91.84% | inhibition rate, Results (%) A-549 [12, 16]: 92.84% | inhibition at 50 µg/mL ([12]; Table 3 (repeated screening)): 90.1% | inhibition rate, Results (%) Bel-7402 ([13]; Table 1, hydrochloride): 81.84% | inhibition rate, Results (%) Bel-7402 [13, 16]: 81.84% | inhibition at 50 µg/mL ([13]; Table 3 (repeated screening)): 83.6%

C=C1CC2(OS(=O)(=O)[O-])OC3(CC2C(C)C)C(C)CCC13.[Na+] (centres unmarked) [Compound 21, Curcumol sodium sulfonate]
inhibition rate, Results (%) MCF-7 ([1]; Table 1): 87.56% | inhibition rate, Results (%) MCF-7 ([1]; Table 2 (repeated screening)): 85.23% | inhibition rate, Results (%) MCF-7 ([1]; Table 3 (repeated screening)): 87.58% | IC50 [2, 14]: > 591 µM | IC50 [3]: 0.75 µg/mL | Inhibition rate ([4]; 0.08 μg/ml): 8.74 | Inhibition rate ([4]; 0.40 μg/ml): 14.77 | Inhibition rate ([4]; 2.0 μg/ml): 5.86 | Inhibition rate ([4]; 10 μg/ml): 10.16 | Inhibition rate ([4]; 50 μg/ml): 5.47 | IC50 [4, 15]: > 148 µM | inhibition rate, Results (%) HL-60 ([5]; Table 1): 93.12% | inhibition rate, Results (%) HL-60 ([5]; Table 2 (repeated screening)): 90.89% | inhibition rate, Results (%) HL-60 ([5]; Table 3 (repeated screening)): 89.79% | IC50 [6]: 4.99 µg/mL | inhibition rate, Results (%) U-937 ([7]; Table 1): 92.04% | inhibition rate, Results (%) U-937 ([7]; Table 2 (repeated screening)): 89.46% | inhibition rate, Results (%) U-937 ([7]; Table 3 (repeated screening)): 91.45% | IC50 [8]: 0.89 µg/mL | inhibition rate, Results (%) SMMC-7721 ([9]; Table 1): −7.26% | inhibition rate, Results (%) SMMC-7721 ([9]; Table 2 (repeated screening)): −1.82% | inhibition rate, Results (%) SMMC-7721 ([9]; Table 3 (repeated screening)): −2.93% | IC50 [10]: 1.3 µg/mL | cell status of 12 and 24 h (293 cells; 12.5 μg/ml): Good | cell status of 12 and 24 h (293 cells; 25 μg/ml): Good | cell status of 12 and 24 h (293 cells; 50 μg/ml): Good | cell status of 12 and 24 h (293 cells; 100 μg/ml): Good | cell status of 12 and 24 h (293 cells; 200 μg/ml): Normal | Cytopathy and cell status, Sample (293 cells; 200 μg/ml): Normal | inhibition rate, Results (%) LLC ([11]; Table 1): 10.47% | inhibition rate, Results (%) LLC ([11]; Table 2 (repeated screening)): 1.89% | inhibition rate, Results (%) LLC ([11]; Table 3 (repeated screening)): 7.58% | inhibition rate, Results (%) A-549 ([12]; Table 1): 26.42% | inhibition rate, Results (%) A-549 ([12]; Table 2 (repeated screening)): 20.01% | inhibition rate, Results (%) A-549 ([12]; Table 3 (repeated screening)): 1.23% | inhibition rate, Results (%) Bel-7402 ([13]; Table 1): 5.36% | inhibition rate, Results (%) Bel-7402 ([13]; Table 2 (repeated screening)): 2.13% | inhibition rate, Results (%) Bel-7402 ([13]; Table 3 (repeated screening)): 3.12%
